Earlier results, collected in PMC12308805, “Ultrahigh-Throughput Virtual Screening Strategies against PPI Targets: A Case Study of STAT Inhibitors” (Journal of Chemical Information and Modeling, 2025).

Tested on: STAT3
Conditions: sheet 6QHD_actives_decoys, retrospective screening set for STAT3 SH2 domain (PDB 6QHD); decoys are presumed inactives, not tested; ref DUD-E; cited from earlier work

SMILES	Type
CCOc1ccc2[nH]c(=O)c(CN(CCc3ccc(OC)c(OC)c3)Cc3nnnn3C3CCCC3)cc2c1 [Decoy799]	Inactive (Decoy)
CC(C)(O)[C@@H](O)CC[C@@H](CO)[C@H]1CC[C@]2(C)C3=C(C[C@H](O)[C@@]12C)[C@@]1(C)C[C@H](O)[C@H](OC(=O)C[C@](C)(O)CC(=O)NCC(=O)O)C(C)(C)[C@H]1CC3 [Decoy836]	Inactive (Decoy)
CCOC(=O)c1ccc(NC(=O)CSc2nnc(CNC(=O)c3ccco3)n2-c2ccc(OCC)cc2)cc1 [Decoy789]	Inactive (Decoy)
CCOc1cccc(/C=N/NC(=O)CSc2nnc(-c3cc(OC)c(OC)c(OC)c3)n2-c2ccccc2)c1O [Decoy798]	Inactive (Decoy)
COc1cc(-c2nnc(SCC(=O)N/N=C/c3cc(OC)c(OC(C)=O)c(OC)c3)n2-c2ccccc2)cc(OC)c1OC [Decoy928]	Inactive (Decoy)
CS(=O)(=O)SCCNC(=O)[C@H](N)CCCCNC(=O)CCCCCNC(=O)CCCC[C@@H]1SC[C@H]2NC(=O)N[C@H]12 [Decoy749]	Inactive (Decoy)
O=C(NC(CO[C@H]1[C@H](O)[C@H](O)[C@H](O)O[C@@H]1CO)CO[C@H]1[C@H](O)[C@H](O)[C@@H](O)O[C@@H]1CO)c1ccc(C2(C(F)(F)F)N=N2)cc1 (stereo partly drawn) [Decoy734]	Inactive (Decoy)
CCOC(=O)c1c(NC(=O)/C(O)=N/N=C/c2cn(-c3ccccc3)nc2-c2ccc(OC)cc2)sc2c1CCCC2 [Decoy838]	Inactive (Decoy)
CC(=O)[C@@H]1CC[C@H]2[C@H]3CC=C4C[C@@H](O[C@@H]5O[C@H](CO)[C@@H](O)[C@H](O)[C@H]5O[C@@H]5O[C@H](CO)[C@@H](O)[C@H](O)[C@H]5O)CC[C@]4(C)[C@@H]3CC[C@]12C [Decoy895]	Inactive (Decoy)
CCOC(=O)[C@@](NC(=O)c1cccc(Cl)c1)(Nc1ccc(S(=O)(=O)Nc2cc(C)nc(C)n2)cc1)C(F)(F)F [Decoy740]	Inactive (Decoy)
CC(C)N(C(=O)c1ccc(C(=O)Nc2cccc(NC(=O)c3ccc(C(=O)N(C(C)C)C(C)C)cc3)n2)cc1)C(C)C [Decoy874]	Inactive (Decoy)
O=S1(=O)CC[C@@H](NCOC(COCN[C@H]2CCS(=O)(=O)C2)COCN[C@H]2CCS(=O)(=O)C2)C1 [Decoy819]	Inactive (Decoy)
COc1ccc(CNc2nc(NCc3ccc(OC)c(OC)c3)n(C(=O)c3ccc(C(C)(C)C)cc3)n2)cc1OC [Decoy921]	Inactive (Decoy)
CCc1c(C)nc(-n2nc(-c3ccco3)cc2NC(=O)c2cc(OC)c(OC)cc2[N+](=O)[O-])nc1O [Decoy834]	Inactive (Decoy)
Nc1nnc(S(=O)(=O)N[C@]2(C(F)(F)F)C(=O)N=C3C2=C(O)NC(=O)N3Cc2cccnc2)s1 [Decoy794]	Inactive (Decoy)
Cc1noc(C)c1CSc1ncccc1C(=O)O[C@H](C)C(=O)Nc1sccc1C(N)=O [Decoy904]	Inactive (Decoy)
C[C@H](OC(=O)c1sccc1NS(C)(=O)=O)C(=O)NCC(=O)Nc1ccc(F)c(F)c1F [Decoy852]	Inactive (Decoy)
CN(Cc1cnc2nc(N)nc(N)c2n1)c1ccc(C(=O)N[C@H](CCC(=O)NCCNC(=O)CCCC[C@@H]2SC[C@@H]3NC(=O)N[C@@H]32)C(=O)O)cc1 [Decoy821]	Inactive (Decoy)
C[C@@]1(c2cc3ccccc3o2)NC(=O)N(CC(=O)Nc2cccc(S(=O)(=O)N3CCCC3)c2)C1=O [Decoy779]	Inactive (Decoy)
CCCOc1ccc([C@@H]2C(C(=O)c3c(C)nc4ccccn34)=C(O)C(=O)N2CCN(CC)CC)cc1OCC [Decoy759]	Inactive (Decoy)

Same assay, conditions: sheet 6QHD_actives_decoys; known STAT3 actives of the retrospective screening set; ref ChEMBL / literature; cited from earlier work

SMILES	Type (known STAT3 active)
O=C(O)CCCNC(=O)[C@@H]1Cc2cccc3c2N1C(=O)[C@@H](NC(=O)/C=C/c1ccc(OP(=O)(O)O)cc1)CC3 [CHEMBL475488]	Active
CC(C)C[C@H](NC(=O)/C=C/c1ccc(OP(=O)(O)O)cc1)C(=O)N1C[C@H]2C[C@H]2[C@H]1C(=O)N[C@@H](CCC(N)=O)C(C)C [CHEMBL573930]	Active

Same assay, conditions: sheet 6QHD_actives_decoys; retrospective screening set for STAT3 SH2 domain (PDB 6QHD); […]; ref DUD-E; cited from earlier work

SMILES	Type
C=C(CO[C@H]1O[C@@H](CO[C@H]2OC[C@@H](O)[C@@H](O)[C@H]2O)[C@@H](O)[C@@H](O)[C@H]1O)[C@H]1Cc2c(ccc3c2O[C@@H]2COc4cc(OC)c(OC)cc4[C@H]2C3=O)O1 [Decoy686]	Inactive (Decoy)
CCOC(=O)C1=C(SC)S[C@@H](/C(C(=O)OCC)=C2/NN=C(c3ccccc3)O2)N=C1N [Decoy644]	Inactive (Decoy)
Cc1cc(NS(=O)(=O)c2ccc(NC(=O)CCCCC(=O)Nc3ccc(S(=O)(=O)Nc4cc(C)on4)cc3)cc2)no1 [Decoy592]	Inactive (Decoy)
Cc1nccc(NS(=O)(=O)c2ccc(NC(=O)c3cccc(C(=O)Nc4ccc(S(=O)(=O)Nc5ccnc(C)n5)cc4)c3)cc2)n1 [Decoy361]	Inactive (Decoy)
COc1ccc(NS(=O)(=O)c2ccc(OC)c(NS(=O)(=O)c3ccc(C#N)cc3)c2)cc1 [Decoy542]	Inactive (Decoy)
O=c1c(C[C@@H](O)CN2CCOCC2)c(O)n(C[C@@H](O)CN2CCOCC2)c(=O)n1C[C@H](O)CN1CCOCC1 [Decoy568]	Inactive (Decoy)
Nn1c(SCC(=O)Nc2ccc(S(=O)(=O)Nc3nccs3)cc2)nnc1-c1ccncc1 [Decoy406]	Inactive (Decoy)

Same assay, conditions: sheet 6QHD_actives_decoys; retrospective screening set for STAT3 SH2 domain (PDB 6QHD); decoys generated with DUD-E and presumed inactive, not tested; ref DUD-E; cited from earlier work

SMILES	Type
CCc1nnc(NS(=O)(=O)c2ccc(NC(=O)c3ccc(S(=O)(=O)N(CCC#N)CCC#N)cc3)cc2)s1 [Decoy466]	Inactive (Decoy)
C=CCn1c(Cc2csc(N)n2)nnc1SCC(=O)Nc1ccc(S(=O)(=O)Nc2cc(C)on2)cc1 [Decoy336]	Inactive (Decoy)
CCCn1c(O)nnc1SCC1=C(C(=O)OCC)[C@H](c2ccc(Cl)cc2)NC(=O)N1 [Decoy576]	Inactive (Decoy)
CCC/C=C/[C@@H](C(=O)NCS(=O)(=O)c1ccc(C)cc1)N(CCC)C(=O)c1cc([N+](=O)[O-])ccc1O [Decoy570]	Inactive (Decoy)
CCOC(=O)c1[nH]c(C)c(C(=O)C2=C(O)C(=O)N(CCCN(C)C)[C@@H]2c2cc(OC)c(OC)c(OC)c2)c1C [Decoy593]	Inactive (Decoy)
CCCC[C@@]1(c2ccc(F)cc2)NC(=O)N(CC(=O)Nc2ccc(S(=O)(=O)N(CC)CC)cc2)C1=O [Decoy682]	Inactive (Decoy)
C[C@H](CCC(=O)NCC(=O)NCCS(=O)(=O)O)[C@H]1CC[C@H]2[C@@H]3[C@H](O)C[C@@H]4C[C@H](O)CC[C@]4(C)[C@H]3C[C@H](O)[C@]12C [Decoy532]	Inactive (Decoy)
O=C(CCN(Cc1ccco1)S(=O)(=O)c1ccc(Cl)cc1)NNC(=O)Nc1ccc(OC(F)(F)F)cc1 [Decoy374]	Inactive (Decoy)
O=P(O)(O)CCN1CCCN(CCP(=O)(O)O)CCN(CCP(=O)(O)O)CCCN(CCP(=O)(O)O)CC1 [Decoy548]	Inactive (Decoy)
COC(=O)[C@@H](/C(=N/N)C(=O)Nc1cc(Cl)ccc1Cl)c1nc2ccc([N+](=O)[O-])cc2nc1O [Decoy349]	Inactive (Decoy)
CCOC(=O)c1sc(N/N=C(\C(=O)Nc2cccc(OC)c2)C(=O)c2ccc([N+](=O)[O-])cc2)c(C(=O)OCC)c1C [Decoy517]	Inactive (Decoy)
CCOc1ccc(-c2n[nH]c3c2[C@H](c2cc(OC)c(OC(C)=O)c(OC)c2)C(C#N)=C(N)O3)cc1 [Decoy509]	Inactive (Decoy)
COc1ccc([C@H]2Oc3c(OC)cc(CCCO)cc3[C@@H]2CO)cc1O[C@@H]1O[C@@H](CO)[C@@H](O)[C@@H](O)[C@@H]1O [Decoy527]	Inactive (Decoy)
CC1=C(/C(O)=N/c2ccc(S(N)(=O)=O)cc2)[C@H](c2ccco2)C(C#N)=C(SCC(=O)Nc2cccc(C(F)(F)F)c2)N1 [Decoy409]	Inactive (Decoy)
CC(=O)Nc1ccc(S(=O)(=O)N(CCN2CCOCC2)CC(=O)N(Cc2ccc3c(c2)OCO3)Cc2ccc(C)o2)cc1 [Decoy727]	Inactive (Decoy)
CC(=O)OC[C@@H]1O[C@H](n2c(=O)[nH]c(=O)c3n[nH]nc32)[C@@H](OC(C)=O)[C@H](OC(C)=O)[C@H]1OC(C)=O [Decoy545]	Inactive (Decoy)
COc1cc(/N=N/c2ccc(N)cc2)c(C)cc1/N=N/c1c(S(=O)(=O)O)cc2ccc(N)cc2c1O [Decoy635]	Inactive (Decoy)
CC(=O)O[C@H]([C@@H](OC(C)=O)[C@H](OC(C)=O)C(=O)NC1CCCCCC1)[C@H](OC(C)=O)C(=O)NC1CCCCCC1 [Decoy426]	Inactive (Decoy)
Cc1cccn2c(=O)c(/C=C3\SC(=S)N(CCCCCC(=O)O)C3=O)c(NCCCn3ccnc3)nc12 [Decoy451]	Inactive (Decoy)
CCCCCO[C@@H]1[C@H]2OC(C)(C)O[C@H]2O[C@@H]1[C@@H](O)CO[C@@H]1O[C@H](COC(C)=O)[C@@H](OC(C)=O)[C@H](OC(C)=O)[C@H]1NC(C)=O [Decoy443]	Inactive (Decoy)
CCN(CC)CCCNC(=S)N(CCN1CCOCC1)Cc1cc2cc3c(cc2[nH]c1=O)OCCO3 [Decoy416]	Inactive (Decoy)
C=C(CCO)C(=O)OC[C@@H]1OC[C@H](OC(=O)C(=C)CCO[C@@H]2O[C@H](COC(=O)C(=C)CCO)[C@@H](O)[C@H](O)[C@H]2O)[C@@H](O)[C@H]1O [Decoy491]	Inactive (Decoy)
CCN[C@@H](c1ccc(I)cc1)c1ccc(OC)c(Br)c1 [Decoy431]	Inactive (Decoy)
CCOC(=O)Cc1csc(NC(=O)CSc2nnc(Cc3csc(N)n3)n2C)n1 [Decoy522]	Inactive (Decoy)
OC[C@@]1(O)CO[C@H](OC[C@H]2O[C@@H](O[C@H](CCCCc3ccc(O)cc3)CCc3ccc(O)cc3)[C@H](O[C@H]3OC[C@](O)(CO)[C@H]3O)[C@@H](O)[C@@H]2O)[C@@H]1O [Decoy685]	Inactive (Decoy)
CCCN(C(=O)c1cccc([N+](=O)[O-])c1)[C@H](C(=O)NCS(=O)(=O)c1ccc(C)cc1)c1ccc(O)cc1 [Decoy565]	Inactive (Decoy)
O=C(O)CN(CC(=O)O)[C@H](CCCCNC(=S)Nc1ccc(-c2c3ccc(=O)cc-3oc3cc(O)ccc23)c(C(=O)O)c1)C(=O)O [Decoy503]	Inactive (Decoy)
CCN(CC)S(=O)(=O)c1ccc(NC(=O)CSc2nnc(N/N=C/c3cccc(O)c3)n2N)cc1 [Decoy398]	Inactive (Decoy)
